Assays:
[1] = system: pooled normal human plasma; assay: Activated partial thromboplastin time (APTT) assay in citrated human plasma; format: biochemical
From the text: (§1) FIG. 2 depicts the anticoagulant effect of (D)-camphorsulfonyl aspartyl sarcosine arginine aldehyde measured in citrated human plasma using the activated partial thromboplastin time (APTT) assay, closed circles (1), and prothrombin time (PT) assay, open triangles (D). The control clotting times (0 inhibitor) for the APTT and PT assays in human plasma were 29 seconds and 13 seconds, respectively. The concentration of (D)-camphorsulfonyl aspartyl sarcosine arginine aldehyde which caused a doubling of the control clotting times in the APTT and PT assays were 54 micromolar and 298 micromolar, respectively. The data is the mean of two independent determinations.
(§2) The ex vivo anticoagulant effect of a compound of the present invention, (D)-camphorsulfonyl aspartyl sarcosine arginine aldehyde (Example 56), was determined by measuring the prolongation of the activated partial thromboplastin time (APTT) and prothrombin time (PT) over a broad concentration range of the added inhibitor, using pooled normal human plasma.
(§3) Fresh frozen citrated pooled normal human plasma was obtained from George King Biomedical, Overland Park, Kansa. […]

[2] = system: pooled normal human plasma; assay: Prothrombin time (PT) assay in citrated human plasma; format: biochemical; details: control clotting time 13 seconds, mean of two independent determinations
From the text: as §1, §2, §3

In the case of `CN(CC(=O)N[C@H](C=O)CCCN=C(N)N)C(=O)[C@H](CC(=O)O)NS(=O)(=O)C[C@]12CC[C@H](CC1=O)C2(C)C` [(D)-camphorsulfonyl aspartyl sarcosine arginine aldehyde], the “concentration which caused a doubling of the control clotting time in the APTT assay” value ([1]; citrated human plasma, control clotting time 29 seconds, mean of two independent determinations) is reported as 54 µM, the “prolongation of the APTT” value ([1]; human plasma, broad concentration range of added inhibitor (FIG. 2)) is reported as “prolonged the APTT in a dose dependent manner” and the “concentration which caused a doubling of the control clotting time in the PT assay” value [2] is reported as 298 µM.

Reference: patent US5696231A, “N-substituted glycine derivatives as enzyme inhibitors” (Corvas International, Inc., priority 1994, dated 1997)
